Measured values: patent US11339130B1 (Blade Therapeutics, Inc., priority 2016, dated 2022)
Read-outs that look alike come from different tables or passages of the source.

Assays:
[1] = biological target: T1, Human Calpain 1/NS1 (Homo sapiens, UniProt P07384); assay: Calpain inhibition continuous fluorescence (FRET) assay, Human Calpain 1/NS1; assay type: biochemical; conditions: read-out: Human Calpain 1/NS1 IC50
T1 sequence (P07384 1-714): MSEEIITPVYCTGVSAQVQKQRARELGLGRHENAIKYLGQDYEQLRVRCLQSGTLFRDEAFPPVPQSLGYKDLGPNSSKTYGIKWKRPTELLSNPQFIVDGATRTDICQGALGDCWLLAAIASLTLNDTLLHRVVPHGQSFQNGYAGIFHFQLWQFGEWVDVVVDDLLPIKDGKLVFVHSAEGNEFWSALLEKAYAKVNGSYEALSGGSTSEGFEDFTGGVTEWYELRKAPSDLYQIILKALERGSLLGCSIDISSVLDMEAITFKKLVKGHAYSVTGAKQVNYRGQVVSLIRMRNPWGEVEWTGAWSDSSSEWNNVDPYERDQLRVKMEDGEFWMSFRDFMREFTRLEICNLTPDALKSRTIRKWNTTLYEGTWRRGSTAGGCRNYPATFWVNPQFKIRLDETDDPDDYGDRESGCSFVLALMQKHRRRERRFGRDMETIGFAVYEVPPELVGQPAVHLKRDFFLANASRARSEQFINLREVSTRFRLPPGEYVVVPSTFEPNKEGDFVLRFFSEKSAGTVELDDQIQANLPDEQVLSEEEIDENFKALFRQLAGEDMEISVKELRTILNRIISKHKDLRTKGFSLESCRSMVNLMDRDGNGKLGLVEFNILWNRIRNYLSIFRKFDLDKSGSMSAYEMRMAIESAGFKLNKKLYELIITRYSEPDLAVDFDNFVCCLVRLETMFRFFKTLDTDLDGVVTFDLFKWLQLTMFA
T1 sequence (P04632 1-268 partner): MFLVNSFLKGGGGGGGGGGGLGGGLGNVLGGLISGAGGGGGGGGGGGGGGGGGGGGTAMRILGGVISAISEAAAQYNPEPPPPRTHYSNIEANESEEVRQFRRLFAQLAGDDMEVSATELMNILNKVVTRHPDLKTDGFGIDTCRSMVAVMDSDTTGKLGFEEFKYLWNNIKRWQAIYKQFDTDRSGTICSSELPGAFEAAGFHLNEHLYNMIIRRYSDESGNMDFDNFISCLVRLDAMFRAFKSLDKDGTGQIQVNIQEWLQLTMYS
In short: (§1)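 Fluorescence increase from the cleaved 5-FAM/QXL 520 substrate, read at 490/520 nm, gave activity. Calcium was supplied with the substrate to activate the enzyme in situ after a 25C enzyme-inhibitor preincubation, and IC50s were fit from initial slopes.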

[2] = biological target: T2, Human Calpain 9/NS1 (Homo sapiens, UniProt O14815); assay: Calpain inhibition continuous fluorescence (FRET) assay, Human Calpain 9/NS1; assay type: biochemical; conditions: read-out: Human Calpain 9/NS1 IC50
T2 sequence (O14815 1-690): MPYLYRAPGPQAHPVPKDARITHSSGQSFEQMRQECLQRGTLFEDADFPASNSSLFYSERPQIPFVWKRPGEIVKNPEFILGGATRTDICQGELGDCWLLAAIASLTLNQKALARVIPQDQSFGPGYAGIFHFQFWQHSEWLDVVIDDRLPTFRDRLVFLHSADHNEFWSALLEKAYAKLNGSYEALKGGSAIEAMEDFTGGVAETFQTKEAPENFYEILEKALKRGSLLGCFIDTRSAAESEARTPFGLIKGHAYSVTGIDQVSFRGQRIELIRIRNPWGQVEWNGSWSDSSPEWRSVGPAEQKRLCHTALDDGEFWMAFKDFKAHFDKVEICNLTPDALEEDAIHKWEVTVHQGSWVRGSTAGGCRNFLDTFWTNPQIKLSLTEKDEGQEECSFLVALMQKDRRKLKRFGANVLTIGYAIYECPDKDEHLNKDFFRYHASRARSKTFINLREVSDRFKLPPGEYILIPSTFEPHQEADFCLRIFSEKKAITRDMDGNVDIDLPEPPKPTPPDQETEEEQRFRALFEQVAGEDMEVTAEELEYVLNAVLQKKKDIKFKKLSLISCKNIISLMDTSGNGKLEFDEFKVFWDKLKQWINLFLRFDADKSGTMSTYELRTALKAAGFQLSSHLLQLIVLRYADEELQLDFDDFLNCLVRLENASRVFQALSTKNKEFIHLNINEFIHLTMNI
T2 sequence (P04632 1-268 partner): T1 sequence (P04632 1-268 partner)
In short: as §1

[3] = biological target: T3, Human Calpain 2/NS1 (Homo sapiens, UniProt P17655); assay: Calpain inhibition continuous fluorescence (FRET) assay, Human Calpain 2/NS1; assay type: biochemical; conditions: read-out: Human Calpain 2/NS1 IC50
T3 sequence (P17655 1-700): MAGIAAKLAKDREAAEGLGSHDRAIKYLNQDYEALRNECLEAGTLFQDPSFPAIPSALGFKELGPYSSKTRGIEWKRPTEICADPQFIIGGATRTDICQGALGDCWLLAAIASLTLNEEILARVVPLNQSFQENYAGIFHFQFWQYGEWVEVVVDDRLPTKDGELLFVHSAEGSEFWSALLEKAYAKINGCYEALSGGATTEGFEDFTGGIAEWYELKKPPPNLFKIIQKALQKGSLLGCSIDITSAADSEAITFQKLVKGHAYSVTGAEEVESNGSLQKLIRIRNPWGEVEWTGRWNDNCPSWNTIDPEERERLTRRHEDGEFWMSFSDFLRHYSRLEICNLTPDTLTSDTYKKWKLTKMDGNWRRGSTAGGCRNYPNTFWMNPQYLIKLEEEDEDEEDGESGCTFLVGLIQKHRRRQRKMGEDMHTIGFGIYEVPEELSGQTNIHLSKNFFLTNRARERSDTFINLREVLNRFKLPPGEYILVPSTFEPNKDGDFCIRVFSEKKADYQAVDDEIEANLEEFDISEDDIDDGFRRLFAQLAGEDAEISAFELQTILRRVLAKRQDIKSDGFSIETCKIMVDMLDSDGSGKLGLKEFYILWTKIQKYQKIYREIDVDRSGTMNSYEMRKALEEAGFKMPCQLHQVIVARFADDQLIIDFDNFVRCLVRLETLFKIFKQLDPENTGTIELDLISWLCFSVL
T3 sequence (P04632 1-268 partner): T1 sequence (P04632 1-268 partner)
In short: as §1

[4] = tested on: Calpain activity in SH-SY5Y cells; assay: SH-SY5Y + AMC fluorescence assay (Suc-LLVY-AMC substrate); assay type: cell-based; conditions: read-out: SH-SY5Y + AMC IC50

Structure (SMILES)	IC50 ([1]; Column A) [µM]	IC50 ([2]; Column C) [µM]	IC50 ([3]; Column B) [µM]	IC50 ([4]; Column E) [µM]	IC50 [1] [µM]	IC50 [2] [µM]	IC50 [3] [µM]	IC50 [4] [µM]
Cn1cc(C(=O)N[C@@H](Cc2ccccc2)C(=O)C(N)=O)c(-c2ccccc2)n1 [Compound 32, (S)—N-(4-amino-3,4-dioxo-1-phenylbutan-2-yl)-1-methyl-3-phenyl-1H-pyrazole-4-carboxamide]	< 3	< 3	< 3	> 25	–	–	–	–
NC(=O)C(=O)[C@H](Cc1ccccc1)NC(=O)c1snnc1-c1ccccc1 [Compound 44, (S)—N-(4-amino-3,4-dioxo-1-phenylbutan-2-yl)-4-phenyl-1,2,3-thiadiazole-5-carboxamide]	< 3	< 3	< 3	> 25	–	–	–	–
NC(=O)C(=O)[C@H](Cc1ccccc1)NC(=O)c1cnoc1-c1ccccc1 [Compound 60, (S)—N-(4-amino-3,4-dioxo-1-phenylbutan-2-yl)-5-phenylisoxazole-4-carboxamide]	< 3	< 3	< 3	< 10	–	–	–	–
NC(=O)C(=O)[C@H](Cc1ccccc1)NC(=O)c1nsnc1-c1ccccc1 [Compound 72, (S)—N-(4-amino-3,4-dioxo-1-phenylbutan-2-yl)-4-phenyl-1,2,5-thiadiazole-3-carboxamide]	< 3	< 3	< 3	< 10	–	–	–	–
NC(=O)C(=O)[C@H](Cc1ccccc1)NC(=O)c1cn(C2CC2)nc1-c1ccccc1 [Compound 250, (S)—N-(4-amino-3,4-dioxo-1-phenylbutan-2-yl)-1-cyclopropyl-3-phenyl-1H-pyrazole-4-carboxamide]	< 3	< 3	< 3	10 to 25	–	–	–	–
CCCC[C@H](NC(=O)c1oc(C)nc1-c1ccccc1)C(=O)C(N)=O [Compound 265, (S)—N-(1-amino-1,2-dioxoheptan-3-yl)-2-methyl-4-phenyloxazole-5-carboxamide]	< 3	< 3	< 3	> 25	–	–	–	–
Cc1nc(-c2ccccc2)c(C(=O)NC(Cc2ccccc2)C(=O)C(N)=O)o1 (stereo not shown) [Compound 357, N-(4-amino-3,4-dioxo-1-phenylbutan-2-yl)-2-methyl-4-phenyloxazole-5-carboxamide]	–	–	–	–	< 3	< 3	< 3	< 10
NC(=O)C(=O)C(Cc1ccccc1)NC(=O)c1cn(C(F)F)nc1-c1ccccc1 (stereo not shown) [Compound 403, N-(4-amino-3,4-dioxo-1-phenylbutan-2-yl)-1-(difluoromethyl)-3-phenyl-1H-pyrazole-4-carboxamide]	–	–	–	–	< 3	< 3	< 3	< 10
Cc1nc(-c2cccc(F)c2)c(C(=O)NC(Cc2ccccc2)C(=O)C(N)=O)o1 (stereo not shown) [Compound 404, N-(4-amino-3,4-dioxo-1-phenylbutan-2-yl)-4-(3-fluorophenyl)-2-methyloxazole-5-carboxamide]	–	–	–	–	< 3	< 3	< 3	< 10
Cc1nc(-c2ccccc2F)c(C(=O)NC(Cc2ccccc2)C(=O)C(N)=O)o1 (stereo not shown) [Compound 405, N-(4-amino-3,4-dioxo-1-phenylbutan-2-yl)-4-(2-fluorophenyl)-2-methyloxazole-5-carboxamide]	–	–	–	–	< 3	< 3	< 3	–
NC(=O)C(=O)C(Cc1ccccc1)NC(=O)c1cn(C2CC2)nc1-c1ccccc1 (stereo not shown) [Compound 406, N-(4-amino-3,4-dioxo-1-phenylbutan-2-yl)-1-cyclopropyl-3-phenyl-1H-pyrazole-4-carboxamide]	–	–	–	–	< 3	< 3	< 3	< 10
Cn1cc(C(=O)NC(Cc2ccccc2)C(=O)C(N)=O)c(-c2ccccc2F)n1 (stereo not shown) [Compound 484, N-(4-amino-3,4-dioxo-1-phenylbutan-2-yl)-3-(2-fluorophenyl)-1-methyl-1H-pyrazole-4-carboxamide]	–	–	–	–	< 3	< 3	< 3	< 10
Cl.Cn1cc(C(=O)NC(Cc2ccccc2)C(=O)C(N)=O)c(-c2cccc(F)c2)n1 (stereo not shown) [Compound 485, N-(4-amino-3,4-dioxo-1-phenylbutan-2-yl)-3-(3-fluorophenyl)-1-methyl-1H-pyrazole-4-carboxamide hydrochloride]	–	–	–	–	< 3	< 3	< 3	10 to 25
Cc1cc(C(=O)NC(Cc2ccccc2)C(=O)C(N)=O)n(-c2ccccn2)n1 (stereo not shown) [Compound 495, N-(4-amino-3,4-dioxo-1-phenylbutan-2-yl)-3-methyl-1-(pyridin-2-yl)-1H-pyrazole-5-carboxamide]	–	–	–	–	< 3	< 3	< 3	< 10
